This is an account of results in ChEMBL document CHEMBL1156829 (Proc Natl Acad Sci U S A, 2008).

pEC50: −log10 of the molar value.

Series [1] has as its system Plasmodium falciparum. Nature of the series: NOVARTIS: Inhibition of Plasmodium falciparum 3D7 (drug-susceptible) proliferation in erythrocyte-based infection assay. As to conditions: Plasmodium falciparum, 3D7. The series is classed as functional, organism-based.
Series [2] relates to Plasmodium falciparum. The series can be described thus: NOVARTIS: Inhibition of Plasmodium falciparum W2 (drug-resistant) proliferation in erythrocyte-based infection assay. As to conditions: Plasmodium falciparum, W2; read-out: EC50. The series is classed as functional, organism-based.
The nature of series [3]: NOVARTIS: Cytotoxicity against human hepatocellular carcinoma cell line (Huh7). As to conditions: Huh7 cells (hepatocellular carcinoma cell line). Type of series: toxicity, cell-based, Huh-7.

For `COc1ccc(C2(CNCC(O)c3cccc([N+](=O)[O-])c3)CCCC2)cc1OC` (stereo not drawn), the pEC50 was 6.31 in the series on Plasmodium falciparum [1] and 7.28 with Plasmodium falciparum [2]. Also, the CC50 in series [3] was greater than 100000 nM.

On to `CC(CCc1ccccc1)N1CC(c2cccc([N+](=O)[O-])c2)OC1=S` (stereo not drawn), for which the pEC50 is 6.51 with Plasmodium falciparum [1] and 7.74 with Plasmodium falciparum [2]. In series [3], this molecule returned a CC50 of 32800 nM.

With `COC(=O)C1=C(C)NC2=C(C(=O)CC(c3ccc(OC)cc3)C2)C1c1ccc(F)cc1` (stereo not drawn), the negative logarithm of the EC50 (pEC50) was 6.72 in the series on Plasmodium falciparum [1] and 7.26 in the series with Plasmodium falciparum [2]. In series [3], this molecule gave a CC50 greater than 100000 nM.

In the case of `CC(=O)Oc1ccccc1-c1nc2cc(C)ccn2c1NC(C)(C)CC(C)(C)C`, the negative logarithm of the EC50 (pEC50) in the series with Plasmodium falciparum [1] is 6.41; in the series on Plasmodium falciparum [2] it was greater than 8.27. Besides, the CC50 in series [3] was greater than 10000 nM.

Consider `CCOC(=O)C1=C(C)NC2=C(C(=O)CC(c3ccc(OC)c(OC)c3)C2)C1c1cccc(C)c1` (stereo not drawn), for which the negative logarithm of the EC50 (pEC50) in the series on Plasmodium falciparum [1] is 6.63; with Plasmodium falciparum [2], 7.24. This molecule registered a CC50 in series [3] greater than 100000 nM.

Consider `COc1ccc(C2CC(=O)C3=C(C2)NC(C)=C(C(=O)OC(C)C)C3c2ccc(F)cc2)cc1OC` (stereo not drawn), for which the pEC50 was 8.02 in the series with Plasmodium falciparum [1] and 7.88 in the series with Plasmodium falciparum [2]. Besides, the CC50 in series [3] worked out at 22800 nM.

Turning to `CC1=C(C(=O)OC(C)C)C(c2ccc([N+](=O)[O-])cc2)C2=C(CC(c3ccc(Cl)cc3)CC2=O)N1` (stereo not drawn), the pEC50 with Plasmodium falciparum [1] is 5.93; with Plasmodium falciparum [2], 7.25. The cytotoxic concentration (CC50) in series [3] was greater than 100000 nM.

Take `Nc1ccc(-c2nc3ccc(-c4nc5ccc(N)cc5[nH]4)cc3[nH]2)cc1`: the negative logarithm of the EC50 (pEC50) in the series on Plasmodium falciparum [1] is 6.92; in the series on Plasmodium falciparum [2] it was 7.25. The molecule further came in with a CC50 in series [3] greater than 100000 nM.

As to `COCCOC(=O)C1=C(C)NC2=C(C(=O)CC(c3ccc(OC)c(OC)c3)C2)C1c1cccc(Cl)c1Cl` (stereo not drawn), the pEC50 is 6.75 in the series with Plasmodium falciparum [1] and 7.24 with Plasmodium falciparum [2]. In addition, in series [3], the 50% cytotoxic concentration (CC50) is greater than 100000 nM.

As for `Cn1nc(C(=O)N2CCCCCC2)c2c1CCC(NCC(C)(C)N1CCOCC1)C2` (stereo not drawn), the pEC50 with Plasmodium falciparum [1] is 7.65; in the series on Plasmodium falciparum [2], 8.26. In series [3], this molecule displayed a CC50 greater than 9560 nM.

As for `COc1cccc(-c2ccc(O)c(CN3CCCCC3)c2)n1`, the negative logarithm of the EC50 (pEC50) with Plasmodium falciparum [1] is 6.33; in the series on Plasmodium falciparum [2], 7.26. Besides, the CC50 in series [3] is greater than 95800 nM.

On to `COc1ccc(NC(=O)C2c3ccccc3C(=O)N(CC(C)C)C2c2cccs2)cc1Cl` (stereo not drawn), for which the pEC50 is 7.04 with Plasmodium falciparum [1] and 7.25 with Plasmodium falciparum [2]. The same molecule registered a CC50 in series [3] greater than 100000 nM.

For `CCCCNC(=O)C(c1cccc(OC)c1)N1C(=O)c2cc(Oc3ccccc3)ccc2NC(=O)C1CO` (stereo not drawn), the negative-log EC50 (pEC50) was 6.74 in the series with Plasmodium falciparum [1] and greater than 8.10 with Plasmodium falciparum [2]. The same molecule came in with a CC50 in series [3] greater than 14000 nM.

In the case of `CCCOC(=O)C1=C(C)NC2=C(C(=O)CC(c3ccc(OC)c(OC)c3)C2)C1c1cccc([N+](=O)[O-])c1` (stereo not drawn), the negative logarithm of the EC50 (pEC50) in the series on Plasmodium falciparum [1] is 6.84; in the series on Plasmodium falciparum [2] it was 7.44. The same molecule gave a CC50 in series [3] greater than 62400 nM.

On to `CC1CCN(C2=C(NC3CCCC3)C(=O)c3ccccc3C2=O)CC1`, for which the results for the pEC50 with Plasmodium falciparum [1] and with Plasmodium falciparum [2] were 8.04 and 7.85, respectively. The same molecule returned a 50% cytotoxic concentration (CC50) in series [3] of 24400 nM.

For `CCOCCCNc1nc2cc(OC)c(OC)cc2c2nc(-c3ccccc3)nn12`, the negative-log EC50 (pEC50) in the series on Plasmodium falciparum [1] was 7.08; in the series on Plasmodium falciparum [2], 7.25. Besides, the CC50 in series [3] is greater than 100000 nM.

With `C[n+]1ccc(/C=C/c2ccccc2F)c2ccccc21`, the figures for the pEC50 with Plasmodium falciparum [1] and in the series with Plasmodium falciparum [2] were 7.19 and greater than 8.28, respectively. In series [3], this molecule returned a cytotoxic concentration (CC50) greater than 10000 nM.

With `CCC(C)OC(=O)C1=C(C)NC2=C(C(=O)CC(c3ccc(Cl)cc3)C2)C1c1ccccc1F` (stereo not drawn), the pEC50 was 6.69 in the series with Plasmodium falciparum [1] and 7.23 with Plasmodium falciparum [2]. This molecule also came in with a CC50 in series [3] greater than 100000 nM.

Consider `OC(Cn1cnc(-c2ccccc2)c1-c1ccccc1)Cn1c2ccc(Br)cc2c2cc(Br)ccc21` (stereo not drawn), for which the pEC50 with Plasmodium falciparum [1] was 6.02; in the series with Plasmodium falciparum [2] it was 7.27. This molecule also had a 50% cytotoxic concentration (CC50) in series [3] greater than 100000 nM.

`CC(C)(C)NC(=S)NN=CC=NNC(=S)NC(C)(C)C`: the pEC50 is 6.68 with Plasmodium falciparum [1] and 7.24 in the series with Plasmodium falciparum [2]. The molecule also displayed a half-maximal cytotoxic concentration (CC50) in series [3] greater than 100000 nM.

As for `CC(C)OCCCNc1sc(S(=O)(=O)c2ccccc2)nc1S(=O)(=O)c1ccc(Cl)cc1`, the pEC50 in the series on Plasmodium falciparum [1] is 7.03; in the series on Plasmodium falciparum [2], 7.24. The molecule also registered a CC50 in series [3] greater than 100000 nM.
